Assay results from patent publication US3945993A, “Derivatives of polyene macrolide antibiotics” (Rutgers Research and Educational Foundation, priority 1971, dated 1976).
≈ marks a conversion by molar mass, not a printed value. Structures can show the parent of a compound that is named as a salt. Where two headings read alike, the source gives them in different places.

Columns and labels:
[1] = True water solubility of base polyene antibiotics by DMSO dilution and ultra-violet spectrum; type: physicochemical; settings: for solubility: water
[2] = test system: Saccharomyces cerevisiae; experiment: Minimum inhibitory concentration, in vitro antifungal potency (Saccharomyces cerevisiae); type: cell-based; settings: for MIC: read-out: Min. Inhibitory Conc.
Text: (§1) As indicated, numerous tests have shown that the antimicrobial activity of the present derivatives, both in the immediate ester form of esterification and in the final water-soluble salt form, is substantially the same as that of the base antibiotics. […] In the table the numerical values represent minimum inhibitory concentration and thus the lower the value, the greater the activity in inhibiting growth of the organism.

[3] = Qualitative solubility of esters and salts in water and organic solvents; type: physicochemical
[4] = Water solubility of acid salts of the esters by the dry weight method; type: physicochemical; settings: acid addition salts (hydrochlorides); for solubility: water
[5] = test system: Mucor rouxii; experiment: Minimum inhibitory concentration (Mucor rouxii); type: cell-based; settings: Amylomyces rouxii
Text: as §1
(§2) In the case of amphotericin B this set of tests was extended to other microorganisms: the minimum inhibitory concentrations in micrograms per ml. for amphotericin B and its methyl ester hydrochloride respectively were 0.5 and 0.5 against Candida albicans, 0.5 and 0.5 against Mucor rouxii, and 0.20 and 0.25 against Aspergillus niger.

[6] = test system: Aspergillus niger; experiment: Minimum inhibitory concentration (Aspergillus niger); type: cell-based
Text: as §1, §2

[7] = True solution in water judged by ultra-violet spectrum (FIG. 5); type: physicochemical; settings: 7 micrograms per ml. in water
Text: The true solubility of the present derivatives is further illustrated by FIG. 5, where curve A is the ultraviolet spectrum for amphotericin B methyl ester hydrochloride in water, 7 micrograms per ml., and curve B is a like spectrum for the same concentration of the base amphotericin B in water.

[8] = test system: Candida albicans; experiment: Minimum inhibitory concentration (Candida albicans); type: cell-based
Text: as §1, §2

[9] = test system: Saccharomyces cerevisiae, Candida albicans and Aspergillus niger; experiment: Standard in vitro tests of antimicrobial activity of derivative and base against representative organisms; type: cell-based; settings: result in words
Text: as §1

[10] = base antibiotics, calculated from UV after ten fold dilution of saturated water solution with dimethyl sulfoxide

Q: With Mediocidin [reference compound] as the compound, how does the Solubility in water [1, 10] read?
A: Its Solubility in water is 0.072 mg/mL.

Q: And the “Min. Inhibitory Conc.” value ([2]; in vitro)?
A: The value was 0.035 micrograms/ml.

Q: Which “solubility in ethyl acetate” value ([3]; ethyl acetate) does the source give for `COC(=O)[C@H]1[C@@H]2C[C@@H](O[C@@H]3O[C@H](C)[C@@H](O)[C@H](N)[C@@H]3O)/C=C/C=C/C=C/C=C/C=C/C=C/C=C/[C@H](C)[C@@H](O)[C@@H](C)[C@H](C)OC(=O)C[C@H](O)C[C@H](O)CC[C@@H](O)[C@H](O)C[C@H](O)C[C@](O)(C[C@@H]1O)O2` [Amphotericin B methyl ester, amphotericin B methyl ester] here?
A: Its value is “slightly soluble”.

Q: And the “solubility in organic solvents” value ([3]; methyl alcohol, ethyl alcohol, tetrahydrofurane, dimethyl formamide and dimethyl sulfoxide)?
A: The value was “soluble”.

Q: What about the “solubility in petroleum ether and ethyl ether” value ([3]; petroleum ether and ethyl ether) of the same compound?
A: The value was “insoluble”.

Q: What about the “solubility in water (in words)” value ([3]; water) of the same compound?
A: The value was “slightly soluble”.

Q: What does the source list for Trichomycin methyl ester hydrochloride?
A: Solubility in water [4]: > 20.0 mg/mL; Min. Inhibitory Conc. ([2]; in vitro): 0.030 micrograms/ml.

Q: For Hamycin methyl ester hydrochloride, which Solubility in water [4] is on record?
A: The Solubility in water was greater than 20.0 mg/mL.

Q: For `COC(=O)C1C(O)CC2(O)CC(O)CC3OC3/C=C/C(=O)OC(C)C/C=C/C=C/C=C/C=C/C(OC3OC(C)C(O)C(N)C3O)CC1O2` (centres unmarked) [Pimaricin methyl ester hydrochloride], which solubility [4] is on record?
A: Its solubility is greater than 80 mg/mL.

Q: For Candidin, which Solubility in water [1, 10] is on record?
A: The Solubility in water was 0.116 mg/mL.

Q: Which results are given for `C[C@@H]1[C@H](O)[C@@H](C)/C=C/C=C/C=C/C=C/C=C/C=C/C=C/[C@H](O[C@@H]2O[C@H](C)[C@@H](O)[C@H](N)[C@@H]2O)C[C@@H]2O[C@](O)(C[C@@H](O)C[C@@H](O)[C@H](O)CC[C@@H](O)C[C@@H](O)CC(=O)O[C@H]1C)C[C@H](O)[C@H]2C(=O)O` [Amphotericin B, amphotericin B, reference compound]?
A: solubility ([1]; base antibiotics, calculated from UV after ten fold dilution of saturated water solution with dimethyl sulfoxide, read-out: Solubility in water): 0.0017 mg/mL (≈ 1.84 µM); MIC [2]: 0.25 µg/mL (≈ 0.271 µM); MIC [5]: 0.5 µg/mL (≈ 0.541 µM); MIC [6]: 0.2 µg/mL (≈ 0.216 µM); state in water by ultraviolet spectrum [7]: did not dissolve and was therefore a mere dispersion

Q: For Mediocidin methyl ester, which “Min. Inhibitory Conc.” value ([2]; in vitro) is on record?
A: The value was 0.030 micrograms/ml.

Q: With Candimycin methyl ester as the compound, how does the “Min. Inhibitory Conc.” value ([2]; in vitro) read?
A: Its value is 0.025 micrograms/ml.

Q: Which results are given for Candicidin methyl ester hydrochloride?
A: Solubility in water [4]: > 20.0 mg/mL; Min. Inhibitory Conc. ([2]; in vitro): 0.025 micrograms/ml.

Q: With Nystatin methyl ester hydrochloride as the compound, how does the Solubility in water [4] read?
A: The Solubility in water was greater than 80.0 mg/mL.

Q: For Candimycin [reference compound], which “Min. Inhibitory Conc.” value ([2]; in vitro) is on record?
A: The value was 0.025 micrograms/ml.

Q: Which Solubility in water ([4]; hydrochloride) does the source give for `COC(=O)[C@H]1[C@@H]2C[C@@H](O[C@@H]3O[C@H](C)[C@@H](O)[C@H](N)[C@@H]3O)/C=C/C=C/C=C/C=C/C=C/C=C/C=C/[C@H](C)[C@@H](O)[C@@H](C)[C@H](C)OC(=O)C[C@H](O)C[C@H](O)CC[C@@H](O)[C@H](O)C[C@H](O)C[C@](O)(C[C@@H]1O)O2` [amphotericin B methyl ester hydrochloride] here?
A: The Solubility in water was greater than 75 mg/mL.

Q: And the solubility [4]?
A: The solubility was greater than 75 mg/mL.

Q: And the MIC [2]?
A: The MIC was 0.25 µg/mL.

Q: And the MIC [8]?
A: Its MIC is 0.5 µg/mL.

Q: And the MIC [5]?
A: Its MIC is 0.5 µg/mL.

Q: And the MIC [6]?
A: The MIC was 0.25 µg/mL.

Q: And the “antimicrobial activity compared with the base antibiotic” value [9]?
A: The value was “very substantial antimicrobial activity, essentially the same, i.e., quantitatively, as the base antibiotic”.

Q: What about the “state in water by ultraviolet spectrum” value [7] of the same compound?
A: Its value is “true solution in water”.

Q: For Trichomycin [reference compound], which Solubility in water [1, 10] is on record?
A: Its Solubility in water is 0.046 mg/mL.

Q: What about the “Min. Inhibitory Conc.” value ([2]; in vitro) of the same compound?
A: The value was 0.030 micrograms/ml.

Q: With `C[C@@H]1C/C=C/C=C/C=C/C=C/[C@H](O[C@@H]2O[C@H](C)[C@@H](O)[C@H](N)[C@@H]2O)C[C@@H]2O[C@](O)(C[C@@H](O)C[C@H]3O[C@@H]3/C=C/C(=O)O1)C[C@H](O)[C@H]2C(=O)O` [Pimaricin, reference compound] as the compound, how does the solubility [1] read?
A: Its solubility is 0.052 mg/mL (≈ 78.1 µM).

Q: What about the MIC ([2]; in vitro) of the same compound?
A: Its MIC is 3.5 µg/mL (≈ 5.26 µM).

Q: For Candidin methyl ester hydrochloride, which Solubility in water [4] is on record?
A: The Solubility in water was greater than 50.0 mg/mL.

Q: What does the source list for Candicidin [reference compound]?
A: Solubility in water [1, 10]: 0.032 mg/mL; Min. Inhibitory Conc. ([2]; in vitro): 0.020 micrograms/ml.

Q: For mediocidin methyl ester hydrochloride, which Solubility in water [4] is on record?
A: Its Solubility in water is greater than 50.0 mg/mL.

Q: With Hamycin as the compound, how does the Solubility in water [1, 10] read?
A: Its Solubility in water is 0.032 mg/mL.

Q: Which “Min. Inhibitory Conc.” value ([2]; in vitro) does the source give for Nystatin methyl ester here?
A: The value was 4.00 micrograms/ml.

Q: With `C[C@@H]1[C@H](O)[C@@H](C)/C=C/C=C/CC/C=C/C=C/C=C/C=C/C(O[C@H]2O[C@H](C)[C@@H](O)[C@H](N)[C@@H]2O)CC2O[C@](O)(CC(O)C(O)CCC(O)CC(O)CC(O)CC(=O)O[C@H]1C)CC(O)C2C(=O)O` (some centres unmarked) [Nystatin, reference compound] as the compound, how does the Solubility in water [1, 10] read?
A: The Solubility in water was 0.039 mg/mL (≈ 42.1 µM).

Q: What about the “Min. Inhibitory Conc.” value ([2]; in vitro) of the same compound?
A: Its value is 3.00 micrograms/ml.

Q: Which MIC ([2]; in vitro) does the source give for `COC(=O)C1C(O)CC2(O)CC(O)CC3OC3/C=C/C(=O)OC(C)C/C=C/C=C/C=C/C=C/C(OC3OC(C)C(O)C(N)C3O)CC1O2` (centres unmarked) [Pimaricin methyl ester] here?
A: Its MIC is 4 µg/mL (≈ 5.88 µM).

Q: For `CCOC(=O)[C@H]1[C@@H]2C[C@@H](O[C@@H]3O[C@H](C)[C@@H](O)[C@H](N)[C@@H]3O)/C=C/C=C/C=C/C=C/C=C/C=C/C=C/[C@H](C)[C@@H](O)[C@@H](C)[C@H](C)OC(=O)C[C@H](O)C[C@H](O)CC[C@@H](O)[C@H](O)C[C@H](O)C[C@](O)(C[C@@H]1O)O2` [Amphotericin B ethyl ester hydrochloride, amphotericin B ethyl ester hydrochloride], which solubility [4] is on record?
A: Its solubility is greater than 75 mg/mL.
